Results on eleven molecules are retold here after article PMC4065032, “Biochemical Characterization of Quinolinic Acid Phosphoribosyltransferase from Mycobacterium tuberculosis H37Rv and Inhibition of Its Activity by Pyrazinamide” (PLoS ONE, 2014).

Where “and” joins values, the source holds several entries; their conditions need not be identical. Equal values may be shown once. Read-outs that look alike come from different tables or passages of the source.

In test [1] the target is T1, MtQAPRTase (Mycobacterium tuberculosis, UniProt P9WJJ7).
T1 sequence (P9WJJ7 1-285): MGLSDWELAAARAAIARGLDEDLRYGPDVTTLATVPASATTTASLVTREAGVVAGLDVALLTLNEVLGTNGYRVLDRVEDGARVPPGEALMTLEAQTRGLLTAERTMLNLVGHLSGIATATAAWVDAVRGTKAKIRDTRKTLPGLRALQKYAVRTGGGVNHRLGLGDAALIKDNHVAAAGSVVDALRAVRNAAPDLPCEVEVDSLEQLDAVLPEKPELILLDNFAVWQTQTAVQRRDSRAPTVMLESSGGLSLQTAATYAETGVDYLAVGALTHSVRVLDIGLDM

A further test deals with T2, WT MtQAPRTase (Mycobacterium tuberculosis, UniProt P9WJJ7).
T2 sequence (P9WJJ7 1-285): T1 sequence (P9WJJ7 1-285)
Put plainly: Kinetic parameters of MtQAPRTase (spectrophotometric assay at 266 nm). In kind it is biochemical, Mycobacterium tuberculosis H37Rv.

In test [2] the target is T1, MtQAPRTase. Description: Inhibition of MtQAPRTase activity by PZA/POA (HPLC quantification of NAMN). The format is biochemical, Mycobacterium tuberculosis H37Rv. Set-up: Full-length nadC from M. tuberculosis H37Rv was inserted into the expression vector pET-30a; made in house; host or cells: E. coli BL21 (DE3), pET-30a. The following applies: for Ki: read-out: Ki estimated from IC50 by web-based tool.

In test [3] the target is T1, MtQAPRTase. Put plainly: PZA or POA added instead of QA or PRPP as substrate (HPLC). The format is biochemical, Mycobacterium tuberculosis H37Rv. Set-up: Full-length nadC from M. tuberculosis H37Rv was inserted into the expression vector pET-30a; made in house; host or cells: E. coli BL21 (DE3), pET-30a.

For the molecule `[Cl][Fe][Cl]` [Fe^2+ (FeCl2), FeCl2], at MtQAPRTase [1], the “Relative Activity” value is listed as 6% and the Specific activity was found to be 0.06 Unit/mg.
A word on the Km: it is the concentration of substrate that gives half-maximal velocity. As usually defined, the kcat is the number of substrate molecules converted per active site and unit of time at saturation. Regarding `O=C(O)c1cccnc1C(=O)O` [QA, 2,3-pyridinedicarboxylic acid], on WT MtQAPRTase (pH 7.2), the Km amounted to 80 µM; the turnover number (kcat) is 0.12 s^-1 and 0.12.
For the molecule `[Cl-].[Cl-].[Zn+2]` [Zn^2+ (ZnCl2), ZnCl2], on MtQAPRTase [1], the “Relative Activity” value is reported as 0% and the Specific activity came out at 0 Unit/mg.
One may read the IC50 as the concentration at which inhibition is half-maximal. Low readings indicate greater potency in that assay, high ones weaker potency in that assay. One may read the Ki as a measure of affinity in units of concentration, obtained from inhibition or displacement. `O=C(O)c1cnccn1` [POA, Pyrazinoic acid]: the IC50 at MtQAPRTase [2] was 3450 µM and > 20000 µM. In addition, the Ki on MtQAPRTase [2] (pH 7.2) was 175 µM. In addition, the “Use as substrate by MtQAPRTase” value at MtQAPRTase [3] is “not substrates”.
With `O=S(=O)([O-])[O-].[Cu+2]` [Cu^2+ (CuSO4), CuSO4], on MtQAPRTase [1], the “Relative Activity” value was determined as 0% and the Specific activity amounted to 0 Unit/mg.
Regarding `[Cl][Mn][Cl]` [Mn^2+ (MnCl2), MnCl2], on MtQAPRTase [1], the “Relative Activity” value stood at 27% and the Specific activity is on record as 0.35 Unit/mg.
In the same order, the values of `[Cl-].[Cl-].[Co+2]` [Co^2+ (CoCl2), CoCl2] are 12% and 0.15 Unit/mg.
As for `[Ca+2].[Cl-].[Cl-]` [Ca^2+ (CaCl2), CaCl2], at MtQAPRTase [1], the “Relative Activity” value amounted to 0% and the Specific activity is 0 Unit/mg.
In the same order, the values of `[Cl-].[Cl-].[Mg+2]` [Mg^2+ (MgCl2), MgCl2] are 100% and 1.32 Unit/mg.
Regarding `NC(=O)c1cnccn1` [PZA, Pyrazinamide], at MtQAPRTase [2], the half-inhibitory concentration (IC50) was 380 µM and 1370 µM. For the same molecule, the figures for the inhibitory constant (Ki) at MtQAPRTase [2] (pH 6.2) and on MtQAPRTase [2] (pH 7.2) were 69.4 µM and 19.2 µM, respectively. Besides, at MtQAPRTase [3], the “Use as substrate by MtQAPRTase” value was “not substrates”.
On to `O=P(O)(O)OC[C@H]1O[C@H](OP(=O)(O)OP(=O)(O)O)[C@H](O)[C@@H]1O` [PRPP, 5-phosphoribosyl-1-pyrophosphate], for which, on WT MtQAPRTase (varied substrate, other substrate fixed (QA 0.3 mM or PRPP 1.0 mM), pH 7.2, 37°C), the turnover number (kcat) amounted to 0.14 s⁻¹. The Km at WT MtQAPRTase (varied substrate, other substrate fixed (QA 0.3 mM or PRPP 1.0 mM), pH 7.2, 37°C, read-out: Km) worked out at 390 µM.
